# Where a SMILES comes first, the peptide text is derived from it. Where no end group is shown, it is not given here. [ ]: non-standard residue; d: D form.
# Columns and labels:
# [1] = XTT cytotoxicity / LD50 calculation; type: cell-based, murine; conditions: mouse, RAW 264.7 cells (macrophages); peptides 2 h, then XTT 2 h; concentration at which 50% of cells were dead, from linear graph
# Experimental: (§1) LD50 is the calculated amount of chemical that causes the death of 50% of the population tested, in this case, RAW 264.7. Each well was seeded with 1 × 10^5 cells 1 day before the experiment. Peptides were added in several doses and incubated with the cells for 2 h, followed by 2 h of XTT. We performed a linear graph and calculated the concentration in which 50% were dead.
# (§2) DMEM supplemented with low endotoxin FBS (10%), L-glutamine (1%), sodium pyruvate (1%), pen–strep (1%), and unessential amino acids (1%) was used to grow RAW 264.7 cells at 37 °C in a humidified atmosphere containing 5% CO2 and 95% air. A 96-well Falcon plate was utilized for the assay, with each well containing 1 × 10^5 cells in a 200 μL medium, cultured overnight and washed with phosphate-buffered saline (PBS) before the experiment. Peptides were added to the wells at various concentrations for 2 h, followed by XTT with fresh medium for another 2 h. The optical density was measured at 450 nm using an enzyme-linked immunosorbent assay plate reader, and cell viability was determined relative to the control.
# [2] = tested on: Lactobacilli ATCC 25258; type: cell-based; conditions: ATCC 25258, 18 h
# Experimental: (§3) The peptide’s minimal inhibitory concentration (MIC) was examined as previously described.[44] In brief, sterile 96-well U-bottom polystyrene plates were used to evaluate peptide activity. Bacterial cells including S. Typhi ATCC 14028s, E. coli ATCC 35218, S. aureus ATCC P8538, and Lactobacilli ATCC 25258 were cultured in Mueller Hinton broth (MHB) at 37 °C overnight. The cells were then washed, centrifuged, and re-suspended in MHB medium. Afterward, 50 μL aliquots of suspended bacteria (1 × 10^6 colony forming units, CFU mL^–1) were added to 50 μL BM2 medium, which contained peptides in serial twofold dilutions. The plates were then incubated at 37 °C for 18 h. The inhibition of growth was determined by measuring the absorbance at 600 nm using a microplate autoreader. The MIC was defined as the concentration at which 90% growth inhibition was observed after 18 h of incubation.
# [3] = tested on: S. Typhi ATCC 14028s; type: cell-based, Salmonella Typhi; conditions: ATCC 14028, 18 h
# Experimental: as §3
# [4] = tested on: pig erythrocytes; type: cell-based; conditions: pH 7.3
# Experimental: To examine the hemolytic properties of the peptides, a concentration of 100 μM was used. A 4% suspension of pig erythrocytes, freshly collected and washed three times in phosphate-buffered saline (PBS, pH 7.3), was used for this purpose. After incubation at 37 °C for 1 h, the suspension was centrifuged at 800g for 10 min, and the absorbance at 540 nm was measured. Complete hemolysis was determined by adding 1% Triton X-100, while adding only PBS was used to determine 0% hemolysis.The hemolysis calculation was as follows: % hemolysis = (ODPeptide – ODBuffer)/(ODTriton1% – ODBuffer) × 100.
# [5] = tested on: E. coli ATCC 35218; type: cell-based, Escherichia coli; conditions: ATCC 35218, 18 h
# Experimental: as §3
# [6] = tested on: S. aureus ATCC P8538; type: cell-based, Staphylococcus aureus; conditions: ATCC P8538, 18 h
# Experimental: as §3
# [7] = tested on: RAW 264.7 cells; experiment: XTT cytotoxicity / LD50 calculation; type: cell-based, murine; conditions: XTT, RAW 264.7 macrophages
# Experimental: as §1, §2
Molecule,CC50 at 2 h [1] [µM],MIC Lactobacilli ATCC 25258 [2] [µM],MIC S. Typhi ATCC 14028s [3] [µM],% hemolysis (100 μM) [4] [%],MIC E. coli ATCC 35218 [5] [µM],MIC S. aureus ATCC P8538 [6] [µM],Concentration toxic to RAW 264.7 cells [7] [µM]
CC[C@H](C)[C@H](NC(=O)CNC(=O)[C@H](CCCCN)NC(=O)[C@H](CCCCN)NC(=O)[C@H](CCCCN)NC(=O)[C@H](CCCCN)NC(=O)[C@@H](N)CCCCN)C(=O)NCC(=O)N[C@H](Cc1ccccc1)C(=O)N[C@@H](CC(C)C)C(=O)N[C@@H](C)C(=O)N[C@H](Cc1ccccc1)C(=O)NCC(=O)N[C@@H](C)C(=O)N[C@@H](Cc1ccccc1)C(=O)N[C@H](C(=O)N[C@H](C(=O)N[C@@H](CC(C)C)C(=O)N[C@@H](CCCCN)C(=O)N[C@@H](CCCCN)C(=O)N[C@@H](CCCCN)C(=O)N[C@@H](CCCCN)C(N)=O)[C@@H](C)CC)C(C)C [MSI-Seg-F2F] (H-KKKKKGIG[dF]LA[dF]GAFVILKKKK-NH2),> 100,12.5,25,8.1 ± 3.2,12.5,12.5,
"GIGKFLKKAKKFGKAFVKILKK-NH2 [MSI-78, Pexiganan]",43.1,1.56,12.5,15.2 ± 1.1,3.12,6.25,40
KKKKKFIGLFAGGIVLAFKKKK-NH2 [MSI-Seg-Scr],> 100,12.5,25,3.9 ± 1.4,12.5,12.5,
KKKKKGIGFLAFGAFVILKKKK-NH2 [MSI-Seg],> 100,>50,25,16.6 ± 4.2,12.5,12.5,
KKKKKGIGGLAGGAFVILKKKK-NH2 [MSI-Seg-F2G],> 100,>50,>50,1.2 ± 30.2,>50,25,
KKKKKKKGIGFLAFGAFVKILK-NH2 [MSI-N7K],60.9,25,25,10 ± 5.6,25,25,60

# Source: publication PMC10210221, “Interaction of Pexiganan (MSI-78)-Derived Analogues Reduces Inflammation and TLR4-Mediated Cytokine Secretion: A Comparative Study” (ACS Omega, 2023)
